# Patent US12043632B2, “6-heteroaryloxy benzimidazoles and azabenzimidazoles as JAK2 inhibitors” (Ajax Therapeutics, Inc., priority 2020, dated 2024)
# Target: T1, JAK2 (JH1domain-catalytic, Y1007F,Y1008F) kinase (Homo sapiens, UniProt O60674, Y1007F/Y1008F)
# T1 construct: JAK2 (JH1domain-catalytic, Y1007F,Y1008F) kinase was expressed as N-terminal fusion; made in house; host or cells: transiently transfected HEK293 cells
# Assay: JAK2 JH1 Domain Binding Assay
# Settings: qPCR readout
# T1 sequence (O60674 849-1124 Y1007F/Y1008F limits assumed): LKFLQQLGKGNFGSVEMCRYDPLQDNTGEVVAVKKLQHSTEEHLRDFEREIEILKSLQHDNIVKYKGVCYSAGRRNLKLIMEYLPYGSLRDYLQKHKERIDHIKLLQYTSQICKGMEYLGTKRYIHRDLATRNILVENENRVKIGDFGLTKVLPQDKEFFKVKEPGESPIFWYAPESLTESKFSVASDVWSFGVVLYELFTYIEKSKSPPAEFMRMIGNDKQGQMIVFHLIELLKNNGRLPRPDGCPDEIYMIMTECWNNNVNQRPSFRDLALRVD
row,Kd [nM],SMILES
1,< 10,"Cn1c(Nc2cc(C(F)(F)F)cn(CCO)c2=O)nc2ncc(Oc3cnn4ccccc34)c(Cl)c21 [Example I-103, 3-((7-chloro-1-methyl-6-(pyrazolo[1,5-a]pyridin-3-yloxy)-1H-imidazo[4,5-b]pyridin-2-yl)amino)-1-(2-hydroxyethyl)-5-(trifluoromethyl)pyridin-2(1H)-one]"
2,10 to 50,"COc1c(Oc2cnn3ccncc23)cnc2nc(Nc3cc(C4CC4)cn(CC(C)(C)OC)c3=O)n(C)c12 [Example I-106, 5-cyclopropyl-3-((7-methoxy-1-methyl-6-(pyrazolo[1,5-a]pyrazin-3-yloxy)-1H-imidazo[4,5-b]pyridin-2-yl)amino)-1-(2-methoxy-2-methylpropyl)pyridin-2(1H)-one]"
3,< 10,"Cn1c(Nc2cc(C3CC3)cn(-c3cccnc3)c2=O)nc2ncc(Oc3cnn4ccncc34)c(Cl)c21 [Example I-108, 3-((7-chloro-1-methyl-6-(pyrazolo[1,5-a]pyrazin-3-yloxy)-1H-imidazo[4,5-b]pyridin-2-yl)amino)-5-cyclopropyl-2H-[1,3′-bipyridin]-2-one]"
4,< 10,"Cn1c(Nc2cc(C(F)(F)F)cn(-c3cccnc3)c2=O)nc2ncc(Oc3cnn4ccncc34)c(Cl)c21 [Example I-109, 3-((7-chloro-1-methyl-6-(pyrazolo[1,5-a]pyrazin-3-yloxy)-1H-imidazo[4,5-b]pyridin-2-yl)amino)-5-(trifluoromethyl)-2H-[1,3′-bipyridin]-2-one]"
5,< 10,"COc1c(Oc2cnn3ccccc23)cnc2nc(Nc3cc(C4CC4)cn([C@H]4C[C@H](O)C4)c3=O)n(C)c12 [Example I-111, trans-5-cyclopropyl-1-(3-hydroxycyclobutyl)-3-((7-methoxy-1-methyl-6-(pyrazolo[1,5-a]pyridin-3-yloxy)-1H-imidazo[4,5-b]pyridin-2-yl)amino)pyridin-2(1H)-one]"
6,< 10,"COc1c(Oc2cnn3ccccc23)cnc2nc(Nc3cc(C4CC4)cn([C@H]4C[C@@H](O)C4)c3=O)n(C)c12 [Example I-112, cis-5-cyclopropyl-1-(3-hydroxycyclobutyl)-3-((7-methoxy-1-methyl-6-(pyrazolo[1,5-a]pyridin-3-yloxy)-1H-imidazo[4,5-b]pyridin-2-yl)amino)pyridin-2(1H)-one]"
7,< 10,"Cn1cc(-n2cc(C3CC3)cc(Nc3nc4ncc(Oc5cnn6ccccc56)c(Cl)c4n3C)c2=O)cn1 [Example I-115, 3-((7-chloro-1-methyl-6-(pyrazolo[1,5-a]pyridin-3-yloxy)-1H-imidazo[4,5-b]pyridin-2-yl)amino)-5-cyclopropyl-1-(1-methyl-1H-pyrazol-4-yl)pyridin-2(1H)-one]"
8,< 10,"Cn1nc(C2CC2)cc(Nc2nc3ncc(Oc4cnn5ccccc45)c(Cl)c3n2C)c1=O [Example I-116, 4-((7-chloro-1-methyl-6-(pyrazolo[1,5-a]pyridin-3-yloxy)-1H-imidazo[4,5-b]pyridin-2-yl)amino)-6-cyclopropyl-2-methylpyridazin-3(2H)-one]"
9,< 10,"Cn1c(Nc2cc(C3CC3)cn(CCCN3CCC(F)(F)C3)c2=O)nc2ncc(Oc3cnn4ccncc34)c(Cl)c21 [Example I-117, 3-((7-chloro-1-methyl-6-(pyrazolo[1,5-a]pyrazin-3-yloxy)-1H-imidazo[4,5-b]pyridin-2-yl)amino)-5-cyclopropyl-1-(3-(3,3-difluoropyrrolidin-1-yl)propyl)pyridin-2(1H)-one]"
10,10 to 50,"Cn1c(Nc2cc(C(F)(F)F)cn(CCCN3CCC(F)(F)C3)c2=O)nc2ncc(Oc3cnn4ccncc34)c(Cl)c21 [Example I-118, 3-((7-chloro-1-methyl-6-(pyrazolo[1,5-a]pyrazin-3-yloxy)-1H-imidazo[4,5-b]pyridin-2-yl)amino)-1-(3-(3,3-difluoropyrrolidin-1-yl)propyl)-5-(trifluoromethyl)pyridin-2(1H)-one]"
